Measured values reported in patent US20100166603A1, “Powder Sterilization” (NOXILIZER, Inc., priority 2008, published 2010).
Values joined by “and” are separate entries in the source; they are usually repeats but may differ in a detail not shown here. Equal values may be shown once.

Assays:
[1] = test system: spores in PVP/spore mixture powder; test: NO2 gas sterilization of tumbled PVP/spore mixture powder in humid air, CFU recovery; assay type: cell-based; conditions: for spore concentration after treatment: two vials present; for CFU per 100 mg: single plates
Protocol: A test to determine whether 100 mg of (PVP) and spore mixture powder could be sterilized using an NO2 gas sterilization process that incorporates a powder tumbling system. The NO2 used was a 10% NO2/90% N2 mixture.
A 2.2 cm diameter circular Tyvek® pieces was likewise cut and the Tyvek® piece was placed between the cap and the silicone septum ring forming a partially breathable cap on the vials, while maintaining the self-healing characteristic of the silicone septum.
The colony forming units (CFU's) recovered from each spore mixture were counted. Multiple plates and dilutions from a given biological indicator (BI) were averaged.
Vials were placed into a cylindrical mesh container. The container was in turn placed into a rock polisher that was configured to spin the container and the vials therein.
The second vial contained 100 mg of PVP/spore mixture with 10 3 mm glass beads (weight of the beads excluded). […]
After the runs, the samples were processed and CFUs were counted after approximately 48 hours of incubation at 35° C.-39° C.

spore population = test: NO2 gas exposure of powder under dry conditions (dry air diluent), spore inactivation; assay type: cell-based; conditions: 10 mg/l NO2 gas, exposure 60 to 600 minutes
Text: FIG. 10 is a log-linear scale of population against exposure time for an experiment carried out with a dry air diluent.

[2] = Run 2 NX1080423A, 3.0 mm, 5 beads, 0.4% NO2, humid air to 25.13 in Hg, 40 min dwell
[3] = Run 2 NX1080423A, 3.0 mm, 10 beads, 0.4% NO2, humid air to 25.13 in Hg, 40 min dwell
[4] = Run 4 NX1080424B, 3.0 mm beads, Table 4 cycle, humid air per Table 5
[5] = Run 5 NX1080429A, 3.0 mm beads, Table 4 cycle, humid air per Table 5
[6] = Run 6 NX1080429B, 3.0 mm beads, Table 4 cycle, humid air per Table 5
[7] = Run 7 NX1080429C, 3.0 mm beads, Table 4 cycle, humid air per Table 5

[O]N=O [NO2, nitrogen dioxide]
final spore concentration ([1]; 0.5 mm bead samples, three pulses, 21 in Hg of humidity added): 4.0×10^−1 spores/100 mg
spore concentration after treatment ([1]; 0.5 mm bead samples, 17 in Hg of humidity added): 1.3×10^2 spores/100 mg
spore concentration after treatment ([1]; 0.5 mm bead samples, 21 in Hg of humidity added): 1.8×10^3 spores/100 mg
spore concentration after treatment ([1]; 0.5 mm bead samples, 23 in Hg of humidity added): 3.5×10^2 spores/100 mg
Average per 100 mg ([1]; Run 1 NX1080422A, 0.5 mm beads, first vial, 0.4% NO2, humid air to 25.13 in Hg, 40 min dwell): 2.4 × 10^4 per 100 mg
Average per 100 mg ([1]; Run 1 NX1080422A, 0.5 mm beads, second vial, 0.4% NO2, humid air to 25.13 in Hg, 40 min dwell): 6.2 × 10^4 per 100 mg
Average per 100 mg [1, 2]: >2.0 × 10^5 per 100 mg
CFU per 100 mg [1, 2]: >2.0 × 10^5 CFU per 100 mg
Average per 100 mg [1, 3]: >2.0 × 10^5 per 100 mg
CFU per 100 mg [1, 3]: >2.0 × 10^5 CFU per 100 mg
Average per 100 mg ([1]; Run 3 NX1080424A, 0.5 mm beads, pre-humidity 10 min, 0.2%+0.2% NO2 with humid air, 10 min dwell, cycle repeats 2): 3.4 × 10^3 per 100 mg
Average per 100 mg ([1]; Run 3 NX1080424A, 3.0 mm beads, pre-humidity 10 min, 0.2%+0.2% NO2 with humid air, 10 min dwell, cycle repeats 2): 8.6 × 10^4 per 100 mg
Average per 100 mg ([1]; Run 4 NX1080424B, 0.5 mm beads, Table 4 cycle: pre-NO2 0.4% 10 min, 0.2%+0.2% NO2, humid air per Table 5, 10 min dwell): 1.8 × 10^3 per 100 mg
Average per 100 mg [1, 4]: 4.0 × 10^4 per 100 mg
CFU per 100 mg [1, 4]: 4.0 × 10^4 CFU per 100 mg and 3.2 × 10^4 CFU per 100 mg and 5.4 × 10^4 CFU per 100 mg and 3.5 × 10^5 CFU per 100 mg
Average per 100 mg ([1]; Run 5 NX1080429A, 0.5 mm beads, Table 4 cycle, humid air per Table 5): 3.5 × 10^2 per 100 mg
Average per 100 mg [1, 5]: 3.6 × 10^4 per 100 mg
CFU per 100 mg [1, 5]: 3.5 × 10^4 CFU per 100 mg and 3.6 × 10^4 CFU per 100 mg
Average per 100 mg ([1]; Run 6 NX1080429B, 0.5 mm beads, Table 4 cycle, humid air per Table 5): 1.1 × 10^2 per 100 mg
Average per 100 mg [1, 6]: 1.9 × 10^4 per 100 mg
CFU per 100 mg [1, 6]: 1.6 × 10^4 CFU per 100 mg and 1.8 × 10^4 CFU per 100 mg and 2.7 × 10^4 CFU per 100 mg
Average per 100 mg ([1]; Run 7 NX1080429C, 0.5 mm beads, Table 4 cycle, humid air per Table 5): 1.3 × 10^2 per 100 mg
Average per 100 mg [1, 7]: 2.3 × 10^4 per 100 mg
CFU per 100 mg [1, 7]: 2.1 × 10^4 CFU per 100 mg and 2.0 × 10^4 CFU per 100 mg and 2.9 × 10^4 CFU per 100 mg and 2.3 × 10^4 CFU per 100 mg
Average per 100 mg ([1]; Run 8 NX1080501B, 0.5 mm beads, one vial, Table 4 cycle, humid air and repeats per Table 5): 1.8 × 10^2 per 100 mg
Average per 100 mg ([1]; Run 9 NX1080501C, 0.5 mm beads, one vial, Table 4 cycle, humid air and repeats per Table 5): 3.3 × 10^1 per 100 mg
Average per 100 mg ([1]; Run 10 NX1080501D, 0.5 mm beads, one vial, Table 4 cycle, humid air and repeats per Table 5): 5.0 × 10^0 per 100 mg
Average per 100 mg ([1]; Run 11 NX1080501E, 0.5 mm beads, one vial, Table 4 cycle, humid air and repeats per Table 5): 1.3 × 10^2 per 100 mg
Average per 100 mg ([1]; Run 12 NX1080505A, 0.5 mm beads, one vial, Table 4 cycle, humid air and repeats per Table 5): 2.2 × 10^1 per 100 mg
Average per 100 mg ([1]; Run 13 NX1080505B, 0.5 mm beads, one vial, Table 4 cycle, humid air and repeats per Table 5): 2.0 × 10^0 per 100 mg
Average per 100 mg ([1]; Run 14 NX1080505C, 0.5 mm beads, one vial, Table 4 cycle, humid air and repeats per Table 5): 4.0 × 10^−1 per 100 mg
Average per 100 mg ([1]; Run 15 NX1080505D, 0.5 mm beads, one vial, Table 4 cycle, humid air and repeats per Table 5): 8.0 × 10^0 per 100 mg
lethality (spore population): acceptable lethality
